# Earlier results, collected in PMC10323144, “Garbage in, garbage out: how reliable training data improved a virtual screening approach against SARS-CoV-2 MPro” (Frontiers in Pharmacology, 2023).
# Square brackets hold non-standard residues; d marks the D form. Peptide text beside a SMILES is read from it. * marks the point of attachment. Cbz = O=C(OCc1ccccc1)*; Nva = CCC[CH](N)C(=O)O
# Tested on: MPro
# Conditions: compiled from peer-reviewed sources (287 compounds) ref the 18 original articles; cited from earlier work
row,Compound,Class (MPro activity class)
1,Cc1c(O)cccc1C(=O)N[C@@H](CSc1ccccc1)[C@H](O)CN1C[C@H]2CCCC[C@H]2C[C@H]1C(=O)NC(C)(C)C [Nelfinavir],"0 (compounds with IC50 > 20 μM, percentage inhibition <80% at 20 µM or 50 μM, or percentage enzyme inhibition <50% at 10 µM were labelled as INACTIVE)"
2,O=c1cc(-c2ccc(O)c(O)c2)oc2cc(O[C@@H]3O[C@H](CO)[C@@H](O)[C@H](O)[C@H]3O)cc(O)c12 [Luteoloside],"0 (compounds with IC50 > 20 μM, percentage inhibition <80% at 20 µM or 50 μM, or percentage enzyme inhibition <50% at 10 µM were labelled as INACTIVE)"
3,CCCC(NC(=O)C(CC(C)C)NC(=O)OCc1ccccc1)C(=O)C(=O)NCc1ccccc1 (stereo not shown) [UAWJ257],"0 (compounds with IC50 > 20 μM, percentage inhibition <80% at 20 µM or 50 μM, or percentage enzyme inhibition <50% at 10 µM were labelled as INACTIVE)"
4,CNC(=O)[C@H](Cc1c[nH]c2ccccc12)NC(=O)[C@@H](CC(=O)NO)CC(C)C [Ilomastat],"0 (compounds with IC50 > 20 μM, percentage inhibition <80% at 20 µM or 50 μM, or percentage enzyme inhibition <50% at 10 µM were labelled as INACTIVE)"
5,COc1ccc(CC(NC(=O)C(C)NC(=O)CN2CCOCC2)C(=O)NC(Cc2ccccc2)C(=O)C2(C)CO2)cc1 (stereo not shown) [ONX-0914],"0 (compounds with IC50 > 20 μM, percentage inhibition <80% at 20 µM or 50 μM, or percentage enzyme inhibition <50% at 10 µM were labelled as INACTIVE)"
6,COc1cc([C@H]2OC[C@H]3[C@@H]2CO[C@H]3c2ccc(OC)c(OC)c2)ccc1O [Phillygenin],"0 (compounds with IC50 > 20 μM, percentage inhibition <80% at 20 µM or 50 μM, or percentage enzyme inhibition <50% at 10 µM were labelled as INACTIVE)"
7,CN(C)C(=O)c1cc2cnc(Nc3ccc(N4CCNCC4)cn3)nc2n1C1CCCC1 [RIBOCICLIB],"0 (compounds with IC50 > 20 μM, percentage inhibition <80% at 20 µM or 50 μM, or percentage enzyme inhibition <50% at 10 µM were labelled as INACTIVE)"
8,CCCC(C=O)NC(=O)C(CC(C)C)NC(=O)C(CC(C)C)NC(=O)OCc1ccccc1 (stereo not drawn) [MG-115] (Cbz-Leu-Leu-[Nva]-aldehyde; configuration not given here),1 (Compounds with IC50 < 10 µM or with a percentage of enzyme inhibition >50% at 10 µM were labelled as ACTIVE)
9,N#CC[C@H](C1CCCC1)n1cc(-c2ncnc3[nH]ccc23)cn1 [Ruxolitinib],"0 (compounds with IC50 > 20 μM, percentage inhibition <80% at 20 µM or 50 μM, or percentage enzyme inhibition <50% at 10 µM were labelled as INACTIVE)"
10,NC(=O)c1ncn([C@@H]2O[C@H](CO)[C@@H](O)[C@H]2O)n1 [Ribavirin],"0 (compounds with IC50 > 20 μM, percentage inhibition <80% at 20 µM or 50 μM, or percentage enzyme inhibition <50% at 10 µM were labelled as INACTIVE)"
11,CC(O)c1cc(C(=O)N[C@@H](C)Cn2ccc(-c3ccc(C#N)c(Cl)c3)n2)[nH]n1 (stereo partly shown) [DAROLUTAMIDE],"0 (compounds with IC50 > 20 μM, percentage inhibition <80% at 20 µM or 50 μM, or percentage enzyme inhibition <50% at 10 µM were labelled as INACTIVE)"
12,CN(C)C(=O)COC(=O)Cc1ccc(OC(=O)c2ccc(NC(=N)N)cc2)cc1 [Camostat],"0 (compounds with IC50 > 20 μM, percentage inhibition <80% at 20 µM or 50 μM, or percentage enzyme inhibition <50% at 10 µM were labelled as INACTIVE)"
13,Carmofur,1 (Compounds with IC50 < 10 µM or with a percentage of enzyme inhibition >50% at 10 µM were labelled as ACTIVE)
14,CC(C)c1c(C(=O)Nc2ccccc2)c(-c2ccccc2)c(-c2ccc(F)cc2)n1CC[C@@H](O)C[C@@H](O)CC(=O)O [Atorvastatin],"0 (compounds with IC50 > 20 μM, percentage inhibition <80% at 20 µM or 50 μM, or percentage enzyme inhibition <50% at 10 µM were labelled as INACTIVE)"
15,COc1cnc(-n2cnc(C)n2)c2[nH]cc(C(=O)C(=O)N3CCN(C(=O)c4ccccc4)CC3)c12 [Temsavir],"0 (compounds with IC50 > 20 μM, percentage inhibition <80% at 20 µM or 50 μM, or percentage enzyme inhibition <50% at 10 µM were labelled as INACTIVE)"
16,CCOC(=O)C1=C[C@@H](OC(CC)CC)[C@H](NC(C)=O)[C@@H](N)C1 [Oseltamivir],"0 (compounds with IC50 > 20 μM, percentage inhibition <80% at 20 µM or 50 μM, or percentage enzyme inhibition <50% at 10 µM were labelled as INACTIVE)"
17,CC(C)c1nc(CN(C)C(=O)N[C@@H](CCN2CCOCC2)C(=O)N[C@H](CC[C@H](Cc2ccccc2)NC(=O)OCc2cncs2)Cc2ccccc2)cs1 [cobicistat],1 (Compounds with IC50 < 10 µM or with a percentage of enzyme inhibition >50% at 10 µM were labelled as ACTIVE)
18,COc1cccc2[nH]c(C(=O)NC(CC(C)C)C(=O)NC(CC3CCNC3=O)C(=O)c3nc4ccccc4s3)cc12 (stereo not shown) [5h],1 (Compounds with IC50 < 10 µM or with a percentage of enzyme inhibition >50% at 10 µM were labelled as ACTIVE)
19,CC(NC(=O)C(O)c1cc(F)cc(F)c1)C(=O)NC1C(=O)N(C)c2ccccc2-c2ccccc21 (stereo not shown) [LY411575],"0 (compounds with IC50 > 20 μM, percentage inhibition <80% at 20 µM or 50 μM, or percentage enzyme inhibition <50% at 10 µM were labelled as INACTIVE)"
20,CC(=O)c1cc([N+](=O)[O-])c(Sc2cccc(Cl)c2Cl)s1 [P005091],"0 (compounds with IC50 > 20 μM, percentage inhibition <80% at 20 µM or 50 μM, or percentage enzyme inhibition <50% at 10 µM were labelled as INACTIVE)"
21,C[C@@H]1O[C@@H](O[C@@H]2[C@@H](O)[C@H](OCCc3ccc(O)c(O)c3)O[C@H](CO)[C@H]2OC(=O)/C=C/c2ccc(O)c(O)c2)[C@H](O)[C@H](O)[C@H]1O [Acteoside],"0 (compounds with IC50 > 20 μM, percentage inhibition <80% at 20 µM or 50 μM, or percentage enzyme inhibition <50% at 10 µM were labelled as INACTIVE)"
22,CC(C)CC(NC(=O)OCc1ccccc1)C(=O)NC(CC1CCNC1=O)C(O)S(=O)(=O)O (stereo not shown) [GC-376],1 (Compounds with IC50 < 10 µM or with a percentage of enzyme inhibition >50% at 10 µM were labelled as ACTIVE)
23,CCC(CC)C(NC(C)=O)C1C(N=C(N)N)CC(C(=O)O)C1O (stereo not shown) [Peramivir],"0 (compounds with IC50 > 20 μM, percentage inhibition <80% at 20 µM or 50 μM, or percentage enzyme inhibition <50% at 10 µM were labelled as INACTIVE)"
24,N#Cc1cccc(C2CN(C(=O)CCl)Cc3ccccc32)c1 (stereo not shown) [NIR-THE-c331be7a-2],1 (Compounds with IC50 < 10 µM or with a percentage of enzyme inhibition >50% at 10 µM were labelled as ACTIVE)
25,O=C(CCl)N1CCN(S(=O)(=O)c2cccs2)CC1 [LON-WEI-8f408cad-3],1 (Compounds with IC50 < 10 µM or with a percentage of enzyme inhibition >50% at 10 µM were labelled as ACTIVE)
26,CC[C@@H]([C@H](C)O)n1ncn(-c2ccc(N3CCN(c4ccc(OC[C@@H]5CO[C@@](Cn6cncn6)(c6ccc(F)cc6F)C5)cc4)CC3)cc2)c1=O [Posaconazole],"0 (compounds with IC50 > 20 μM, percentage inhibition <80% at 20 µM or 50 μM, or percentage enzyme inhibition <50% at 10 µM were labelled as INACTIVE)"
27,N#Cc1ccccc1-c1cc(-c2cc(Cl)cc(OCc3ccccc3)c2)c(=O)n(-c2cccnc2)c1 [compound 7],1 (Compounds with IC50 < 10 µM or with a percentage of enzyme inhibition >50% at 10 µM were labelled as ACTIVE)
28,CCCOc1cc(Cl)cc(-c2cc(-c3ccccc3C#N)cn(-c3cncnc3)c2=O)c1 [compound 9],1 (Compounds with IC50 < 10 µM or with a percentage of enzyme inhibition >50% at 10 µM were labelled as ACTIVE)
